What was measured:
[1] = biological target: Casein kinase I isoform delta (Homo sapiens, UniProt P48730); experiment: CSNK1D-Inhibitory Activity Assay
Procedure: For the assay 50 nl of a 100-fold concentrated solution of the test compound in DMSO was pipetted into a white 1536-well microtiter plate (Greiner Bio-One, Frickenhausen, Germany), 2 μL of a solution of CSNK1D in aqueous assay buffer [50 mM HEPES pH 7.5, 10% (v/v) glycerol, 10 mM MgCl2, 50 mM NaCl, 1 mM dithiothreitol, 0.01% (w/v) bovine serum albumin, 0.01% (v/v) Triton X-100] were added and the mixture was incubated for 15 min at 22° C. to allow pre-binding of the test compounds to the enzyme before the start of the kinase reaction. Then the kinase reaction was started by the addition of 3 μL of a solution of ATP (1.67 μM=>final conc. in the 5 μL assay volume is 1 μM) and peptide substrate (50 μM=>final conc. in the 5 μL assay volume is 30 μM) in assay buffer and the resulting mixture was incubated for a reaction time of 30 min at 22° C. The concentration of CSNK1D was adjusted depending of the activity of the enzyme lot and was chosen appropriate to have the assay in the linear range, a typical concentration is about 0.5 ng/μL. […] Subsequently 2.5 μL of the “kinase detection reagent” (1.2 fold more concentrated than recommended by the producer) were added, the resulting mixture was incubated at 22° C. for 1 h and then the luminescence measured with a suitable measurement instrument (e.g. Viewlux™ from Perkin-Elmer). […]

[2] = biological target: T1, Casein kinase I isoform alpha (Homo sapiens, UniProt P48729); experiment: CSNK1A1-Inhibitory Activity Assay (High ATP)
Procedure: For the assay 50 nl of a 100 fold concentrated solution of the test compound in DMSO was pipetted into a white low volume 384-well microtiter plate (Greiner Bio-One, Frickenhausen, Germany), 2 μL of a solution of CSNK1A1 in aqueous assay buffer [50 mM HEPES pH 7.5, 10% (v/v) glycerol, 10 mM MgCl2, 50 mM NaCl, 1 mM dithiothreitol, 0.01% (w/v) bovine serum albumin, 0.01% (v/v) Triton X-100] were added and the mixture was incubated for 15 min at 22° C. to allow pre-binding of the test compounds to the enzyme before the start of the kinase reaction. Then the kinase reaction was started by the addition of 3 μL of a solution of ATP (1.67 mM=>final conc. in the 5 μL assay volume is 1 mM) and peptide substrate (167 μM=>final conc. in the 5 μL assay volume is 100 μM) in assay buffer and the resulting mixture was incubated for a reaction time of 30 min at 22° C. The concentration of CSNK1A1 was adjusted depending of the activity of the enzyme lot and was chosen appropriate to have the assay in the linear range, a typical concentration is about 0.4 ng/μL. […] Subsequently 2.5 μL of the “kinase detection reagent” (1.2 fold more concentrated than recommended by the producer) were added, the resulting mixture was incubated at 22° C. for 1 h and then the luminescence measured with a suitable measurement instrument (e.g. Viewlux™ from Perkin-Elmer). […]

[3] = biological target: Casein kinase I isoform gamma-3 (Homo sapiens, UniProt Q9Y6M4); experiment: CSNK1G3-Inhibitory Activity Assay
Procedure: For the assay 50 nl of a 100 fold concentrated solution of the test compound in DMSO was pipetted into a white 1536-well microtiter plate (Greiner Bio-One, Frickenhausen, Germany), 2 μL of a solution of CSNK1G3 in aqueous assay buffer [50 mM HEPES pH 7.5, 10% (v/v) glycerol, 10 mM MgCl2, 50 mM NaCl, 1 mM dithiothreitol, 0.01% (w/v) bovine serum albumin, 0.01% (v/v) Triton X-100] were added and the mixture was incubated for 15 min at 22° C. to allow pre-binding of the test compounds to the enzyme before the start of the kinase reaction. Then the kinase reaction was started by the addition of 3 μL of a solution of ATP ([…]) and peptide substrate (50 μM=>final conc. in the 5 μL assay volume is 30 μM) in assay buffer and the resulting mixture was incubated for a reaction time of 30 min at 22° C. The concentration of CSNK1G3 was adjusted depending of the activity of the enzyme lot and was chosen appropriate to have the assay in the linear range, a typical concentration is about 0.06 ng/μL. […] Subsequently 2.5 μL of the “kinase detection reagent” (1.2 fold more concentrated than recommended by the producer) were added, the resulting mixture was incubated at 22° C. for 1 h and then the luminescence measured with a suitable measurement instrument (e.g. Viewlux™ from Perkin-Elmer). […]

[4] = biological target: T1, Casein kinase I isoform alpha; experiment: CSNK1A1-Inhibitory Activity Assay (Low ATP)
Procedure: For the assay 50 nl of a 100-fold concentrated solution of the test compound in DMSO was pipetted into a white 1536-well microtiter plate (Greiner Bio-One, Frickenhausen, Germany), 2 μL of a solution of CSNK1A1 in aqueous assay buffer [50 mM HEPES pH 7.5, 10% (v/v) glycerol, 10 mM MgCl2, 50 mM NaCl, 1 mM dithiothreitol, 0.01% (w/v) bovine serum albumin, 0.01% (v/v) Triton X-100] were added and the mixture was incubated for 15 min at 22° C. to allow pre-binding of the test compounds to the enzyme before the start of the kinase reaction. Then the kinase reaction was started by the addition of 3 μL of a solution of ATP (1.67 μM=>final conc. in the 5 μL assay volume is 1 μM) and peptide substrate (50 μM=>final conc. in the 5 μL assay volume is 30 μM) in assay buffer and the resulting mixture was incubated for a reaction time of 30 min at 22° C. The concentration of CSNK1A1 was adjusted depending of the activity of the enzyme lot and was chosen appropriate to have the assay in the linear range, a typical concentrations are about 0.0375 ng/μL. […] Subsequently 2.5 μL of the “kinase detection reagent” (1.2 fold more concentrated than recommended by the producer) were added, the resulting mixture was incubated at 22° C. for 1 h and then the luminescence measured with a suitable measurement instrument (e.g. Viewlux™ from Perkin-Elmer). […]

T1 sequence (P48729 whole entry, canonical isoform): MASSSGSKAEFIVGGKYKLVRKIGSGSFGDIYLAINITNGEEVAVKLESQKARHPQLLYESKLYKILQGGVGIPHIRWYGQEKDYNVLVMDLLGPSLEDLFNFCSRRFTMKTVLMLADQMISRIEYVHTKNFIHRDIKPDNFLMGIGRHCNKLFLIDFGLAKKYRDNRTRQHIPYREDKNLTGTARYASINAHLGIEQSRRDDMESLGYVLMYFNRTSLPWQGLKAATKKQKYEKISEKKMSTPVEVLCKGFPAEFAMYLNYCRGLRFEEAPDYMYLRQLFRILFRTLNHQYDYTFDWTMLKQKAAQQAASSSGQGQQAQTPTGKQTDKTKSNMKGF
Sequence of Casein kinase I isoform delta (P48730 whole entry, canonical isoform): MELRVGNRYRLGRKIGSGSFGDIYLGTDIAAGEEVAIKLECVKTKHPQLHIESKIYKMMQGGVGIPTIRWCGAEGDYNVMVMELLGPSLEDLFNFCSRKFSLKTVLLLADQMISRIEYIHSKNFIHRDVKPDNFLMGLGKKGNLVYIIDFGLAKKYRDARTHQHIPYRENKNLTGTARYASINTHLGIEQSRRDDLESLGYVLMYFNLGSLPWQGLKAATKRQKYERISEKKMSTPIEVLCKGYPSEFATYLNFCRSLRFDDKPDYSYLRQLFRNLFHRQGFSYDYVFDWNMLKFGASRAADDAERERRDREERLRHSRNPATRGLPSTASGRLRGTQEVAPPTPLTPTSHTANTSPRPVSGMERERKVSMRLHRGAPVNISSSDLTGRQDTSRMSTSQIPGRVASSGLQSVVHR
Sequence of Casein kinase I isoform gamma-3 (Q9Y6M4 whole entry, canonical isoform): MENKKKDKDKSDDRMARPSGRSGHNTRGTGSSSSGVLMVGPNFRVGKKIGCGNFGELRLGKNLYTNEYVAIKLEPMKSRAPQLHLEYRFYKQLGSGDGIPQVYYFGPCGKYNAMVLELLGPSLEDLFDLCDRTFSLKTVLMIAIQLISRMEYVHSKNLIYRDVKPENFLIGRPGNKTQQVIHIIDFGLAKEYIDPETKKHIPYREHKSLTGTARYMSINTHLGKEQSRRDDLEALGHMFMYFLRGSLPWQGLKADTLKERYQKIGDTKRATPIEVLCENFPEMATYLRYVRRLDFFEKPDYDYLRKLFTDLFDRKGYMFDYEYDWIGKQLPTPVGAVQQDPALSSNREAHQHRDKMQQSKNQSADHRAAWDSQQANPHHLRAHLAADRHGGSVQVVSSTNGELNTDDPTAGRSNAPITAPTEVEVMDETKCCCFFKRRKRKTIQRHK

- IC50 [1]: 5.22 nM
- IC50 [2]: 47 nM
- IC50 [3]: 50.3 nM
- IC50 [4]: 1.82 nM
SMILES: O=C(Cc1cnco1)Nc1cc(-c2[nH]c3cccnc3c2-c2ccccn2)ccn1 [US20250188075, Example 4]
